Test: Accelerated stability at 56° C. of chlorobutanol and paraben test solution in untreated and fluorinated polypropylene bottles (HPLC concentration)
Assay type: physicochemical
Experimental: Polypropylene bottles (dropper-type) were obtained from Owens-Brockway, Ill. (capacity 5 ml). Some of the bottles were sent to a company called Fluoro-Seal (Columbus, Ohio) where they were treated for fluorine-coating under a proprietary method. After the bottles were ‘fluorosealed’ (done at ‘level 5’) they were washed in dilute soap solution rinsed several times in de-ionized water and dried before use. The bottles were then filled with 3 ml of a chlorobutanol and paraben test solution (Table 4). Control samples of untreated polypropylene bottles filled with the same solution were also prepared. All samples were prepared in duplicate and put up on accelerated stability at 56° C. Before putting on stability, ‘0’ time-point samples from all bottles were collected and the bottles were weighed. Concentration of cholorobutanol and methyl- and propyl parabens was determined by an HPLC method. Samples were taken at 1 wk, 2 wk and 4 wks by expelling ˜50-100 mcg droplets into tared vials. Bottles were weighed before and after sampling, before returning to condition. The following terms are used in Table 4, below. PP means polypropylene (untreated). PP-FL or PP-FL5 means fluorinated polypropylene at service provider's specified level of ‘5’. LDPE is low density polyethylene (untreated). LDPE-FL5 means low density polyethylene fluorinated at service provider's specified level of ‘5’. Duplicate samples were measured.

Conc. of propylparaben (bottle FL-5P P-2 (fluorinated polypropylene, level 5), time of storage 0 weeks): 102 µg/mL | Conc. of propylparaben (bottle FL-5P P-2 (fluorinated polypropylene, level 5), time of storage 1 week): 95.3 µg/mL | Conc. of propylparaben (bottle FL-5P P-2 (fluorinated polypropylene, level 5), time of storage 2 weeks): 96.6 µg/mL | Conc. of propylparaben (bottle FL-5P P-2 (fluorinated polypropylene, level 5), time of storage 4 weeks): 94.6 µg/mL | Conc. of propylparaben (bottle FL-5 PP-1 (fluorinated polypropylene, level 5), time of storage 0 weeks): 104 µg/mL | Conc. of propylparaben (bottle FL-5 PP-1 (fluorinated polypropylene, level 5), time of storage 1 week): 95.3 µg/mL | Conc. of propylparaben (bottle FL-5 PP-1 (fluorinated polypropylene, level 5), time of storage 2 weeks): 96.6 µg/mL | Conc. of propylparaben (bottle FL-5 PP-1 (fluorinated polypropylene, level 5), time of storage 4 weeks): 89.3 µg/mL | Conc. of propylparaben (bottle PP-1 (untreated polypropylene), time of storage 0 weeks): 103 µg/mL | Conc. of propylparaben (bottle PP-1 (untreated polypropylene), time of storage 1 week): 86.2 µg/mL | Conc. of propylparaben (bottle PP-1 (untreated polypropylene), time of storage 2 weeks): 82.5 µg/mL | Conc. of propylparaben (bottle PP-1 (untreated polypropylene), time of storage 4 weeks): 69.5 µg/mL | Conc. of propylparaben (bottle PP-2 (untreated polypropylene), time of storage 0 weeks): 103 µg/mL | Conc. of propylparaben (bottle PP-2 (untreated polypropylene), time of storage 1 week): 86.9 µg/mL | Conc. of propylparaben (bottle PP-2 (untreated polypropylene), time of storage 2 weeks): 77.8 µg/mL | Conc. of propylparaben (bottle PP-2 (untreated polypropylene), time of storage 4 weeks): 65.1 µg/mL
SMILES: CCCOC(=O)c1ccc(O)cc1 [PROPYLPARABEN, propylparaben]

— US20040079671A1, “Medicinal product packaging” (priority 2002, published 2004)
